According to patent publication EP3046573B1, “AMYLIN ANALOGUES” (Zealand Pharma A/S, priority 2013, dated 2015):
Read-outs that look alike come from different tables or passages of the source. Numbered stars: 1 amine (or outer) side, 2 acyl side, 3 side chain; on linkers, the order of the positions; unused ones are H or OH. Bridge positions count the residues as written; N and C are the ends. Square brackets hold non-standard residues; d marks the D form. Peptide text beside a SMILES is read from it. * marks the point of attachment. C20 diacid = O=C(O)CCCCCCCCCCCCCCCCCCC(=O)*; γGlu = O=C(O)[C@H](CCC(=O)[*:2])N[*:1]; NMeI = CC[C@H](C)[C@H](NC)C(=O)O; Sar = CNCC(=O)O

Assays:
[1] = target: T1, human calcitonin receptor (hCTR2) (Homo sapiens, UniProt P30988); assay: hCTR2 assay: induction of cAMP (AlphaScreen cAMP Assay kit) in COS7 cells expressing hCTR2; type: cell-based; conditions: cAMP induction in COS7 cells expressing hCTR2; average of a minimum of 3 determinations; read-out: hCTR2 EC50
T1 construct: expressed in transfected cells
T1 sequence (P30988 25-474): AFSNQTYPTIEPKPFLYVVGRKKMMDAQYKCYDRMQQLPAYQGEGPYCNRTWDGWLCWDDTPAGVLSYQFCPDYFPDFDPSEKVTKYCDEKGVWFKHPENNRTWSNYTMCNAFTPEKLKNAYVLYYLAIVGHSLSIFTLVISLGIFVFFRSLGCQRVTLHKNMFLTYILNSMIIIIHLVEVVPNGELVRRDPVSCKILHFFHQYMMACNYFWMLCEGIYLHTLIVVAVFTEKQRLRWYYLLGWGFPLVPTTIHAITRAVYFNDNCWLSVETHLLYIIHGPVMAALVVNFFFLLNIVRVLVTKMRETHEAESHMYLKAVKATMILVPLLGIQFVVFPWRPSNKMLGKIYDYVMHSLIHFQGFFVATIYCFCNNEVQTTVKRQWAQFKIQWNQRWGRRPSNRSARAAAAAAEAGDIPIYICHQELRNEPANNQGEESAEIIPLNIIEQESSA
In short: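 Stable RAMP-naive COS7 clone expressing hCTR2 was stimulated with increasing peptide concentrations in Tyrode buffer (pH 7.4) with 100 µM IBMX and 0.1% casein for 15 min at 37° C. Cells were lysed and cAMP measured by AlphaScreen. EC50 and efficacy relative to pramlintide came from 4PL curve fits.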

[2] = target: T2, human amylin receptor 3 (hAMYR3) consisting of hCTR2 co-expressed with human Receptor Activity Modifying Protein 3 (hRAMP3) (Homo sapiens, UniProt O60896+P30988); assay: hAMYR3 assay: induction of cAMP (AlphaScreen cAMP Assay kit) in COS7 cells expressing hAMYR3; type: cell-based
T2 construct: expressed in transfected cells
T2 sequence (P30988 25-474): T1 sequence (P30988 25-474)
T2 sequence (O60896 24-148 partner): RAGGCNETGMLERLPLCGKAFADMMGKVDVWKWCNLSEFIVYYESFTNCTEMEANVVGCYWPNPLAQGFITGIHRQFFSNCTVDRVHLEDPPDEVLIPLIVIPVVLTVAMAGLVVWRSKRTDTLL
Text: The cell line COS7, originating from African Green Monkey kidney fibroblast cells, was used for establishment of the stable cell lines described below. The COS7 cellular background was used due to it being RAMP naive, and as such it provides the best available system for testing of the monomeric hCTR and different heterodimeric amylin receptor subtypes functionally generated by introduction of the individual RAMPs.
A cell line expressing the human amylin receptor 3 (hAMYR3) was generated in the COS7 cellular background as stable clones. In brief, hCTR2 (GI:4502547) and hRAMP3 (GI:118572586) were amplified by PCR using primers encoding terminal restriction sites for subcloning. The 5'-end primers additionally encoded a near Kozak consensus sequence to ensure efficient translation. The fidelity of the DNA encoding the receptor was confirmed by DNA sequencing. The PCR products encoding the receptor were subcloned into a proprietary tri-cistronic mammalian expression vector with RAMP3, hCTR2 and neomycin (G418) resistance marker. The mammalian expression vector encoding the receptor was transfected into COS7 cells by a standard liposome transfection method. 48 hours post-transfection, cells were seeded for limited dilution cloning and selected with 1 mg/ml G418 in the culture medium. After 3 weeks, surviving colonies of hAMY3R-expressing cells were picked, propagated and tested in the amylin efficacy assay as described in Example 3 below. The functional generation of the amylin receptor phenotype was verified in the efficacy assay by a left-shifted efficacy response to amylin relative to monomeric calcitonin receptor, and one hAMYR3-expressing clone was chosen for compound profiling.
In vitro activity of test peptides at the hCTR2 and hAMYR3 receptors was assessed by measuring the induction of cAMP following stimulation of the receptor by pramlintide or peptides of the invention using the AlphaScreen® cAMP Assay kit from Perkin-Elmer.
Briefly, COS7 cells expressing hCTR2 (see Example 2, above) were seeded at 30-40,000 cells per well in 96-well microtiter plates coated with 0.01 % poly-L-lysine, and grown for 1 day in culture in 100 µl growth medium [DMEM, 10% FCS, Penicillin (100 IU/ml), Streptomycin (100 µg/ml)]. On the day of analysis, growth medium was removed and the cells were washed once with 200 µl Tyrode buffer [Tyrode's Salts (9.6 g/l), 10 mM HEPES, pH 7.4]. Cells were incubated in 100 µl Tyrode buffer containing increasing concentrations of test peptides, 100 µM IBMX and 0.1% casein for 15 min at 37° C. The reaction was stopped by carefully decanting off the compound/buffer medium and replacing it with lysis/detection buffer (80 µl 0.1 % w/v BSA, 5 mM HEPES, 0.3 % v/v Tween-20 in deionized water). After incubation at room temperature for 10 min., the cAMP content of the resulting cell lysate was estimated according to the AlphaScreen® cAMP Assay manufacturer's instructions. EC50 values and relative efficacy values (in %) compared to reference peptide (Pramlintide) were estimated by computer-aided curve fitting using the 4-parameter logistic (4PL) non-linear model.
The in vitro activity results (expressed as EC50 values) for peptides of the invention and for Pramlintide (reference peptide) are summarized in Table 2, below.

[3] = Solubility assessment (turbidity absorbance at 325 nm); type: physicochemical; conditions: stock 2 mg/ml diluted 1:1, ambient temperature (typically 25°C), n=1
In short: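 Peptide stock (2 mg/ml) in water acidified to pH 2.5 with HCl was diluted 1:1 into 100 mM acetate (pH 4.0, 5.0), histidine (pH 6.0, 7.0) or phosphate (pH 6.0, 7.0, 7.5) buffer. A280 and A325 were read at about 25°C, n=1. A325 ≤ 0.02 meant solubility ≥ 1 mg/ml.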

[4] = cAMP induction in COS7 cells expressing hAMYR3, average of a minimum of 3 determinations, read-out: hAMY R3 EC50

Structure (SMILES) | EC50 [1] | EC50 [2, 4] | EC50 [2] | Solubility, Acetate buffer pH 4 ([3]; 100 mM acetate buffer pH 4.0) | Solubility, Acetate buffer pH 5 ([3]; 100 mM acetate buffer pH 5.0) | Solubility, Histidine buffer pH 6 ([3]; 100 mM histidine buffer pH 6.0) | Solubility, Histidine buffer pH 7 ([3]; 100 mM histidine buffer pH 7.0) | Solubility, Phosphate buffer pH 6 ([3]; 100 mM phosphate buffer pH 6.0) | Solubility, Phosphate buffer pH 7 ([3]; 100 mM phosphate buffer pH 7.0) | Solubility, Phosphate buffer pH 7.5 ([3]; 100 mM phosphate buffer pH7.5)
CC[C@H](C)[C@@H](C(=O)N[C@@H](CC(C)C)C(=O)N[C@@H](CO)C(=O)N[C@@H](CO)C(=O)N[C@H](C(=O)N[C@@H](CC(=O)O)C(=O)N[C@H](C(=O)NCC(=O)N[C@@H](CO)C(=O)N[C@@H](CC(=O)O)C(=O)N[C@H](C(=O)N1CCC[C@H]1C(N)=O)[C@@H](C)O)C(C)C)[C@@H](C)O)N(C)C(=O)[C@H](C)NC(=O)CN(C)C(=O)[C@H](Cc1ccccc1)NC(=O)[C@H](CO)NC(=O)[C@H](CO)NC(=O)[C@H](CO)NC(=O)[C@H](CO)NC(=O)[C@H](CCCNC(=N)N)NC(=O)[C@H](Cc1c[nH]cn1)NC(=O)[C@H](CC(C)C)NC(=O)[C@H](Cc1ccccc1)NC(=O)[C@H](CCC(=O)O)NC(=O)[C@H](C)NC(=O)[C@H](CC(C)C)NC(=O)[C@H](CCCNC(=N)N)NC(=O)[C@H](CCC(=O)O)NC(=O)[C@@H](NC(=O)[C@H](C)NC(=O)[C@@H]1CSSC[C@H](NC(=O)[C@H](CCCNC(=N)N)NC(=O)CC[C@H](NC(=O)CCCCCCCCCCCCCCCCCCC(=O)O)C(=O)O)C(=O)N2CCC[C@H]2C(=O)N[C@@H]([C@@H](C)O)C(=O)N[C@@H](C)C(=O)N[C@@H]([C@@H](C)O)C(=O)N1)[C@@H](C)O [Compound 173, [19CD]-isoGlu-RC()PTATC()ATERLAEFLHRSSSSF-Gly(Me)-A-Ile(Me)-LSSTDVGSDTP-NH2] ({C20 diacid-γGlu}-RCPTATCATERLAEFLHRSSSSF[Sar]A[NMeI]LSSTDVGSDTP-NH2; disulfide 2-7) | 62 pM | 140 pM |  |  |  |  |  |  |  | 
CC[C@H](C)[C@@H](C(=O)N[C@@H](CC(C)C)C(=O)N[C@@H](CO)C(=O)N[C@@H](CO)C(=O)N[C@H](C(=O)N[C@@H](CCC(=O)O)C(=O)N[C@H](C(=O)NCC(=O)N[C@@H](CO)C(=O)N[C@@H](CCC(=O)O)C(=O)N[C@H](C(=O)N1CCC[C@H]1C(N)=O)[C@@H](C)O)C(C)C)[C@@H](C)O)N(C)C(=O)[C@H](C)NC(=O)CN(C)C(=O)[C@H](Cc1ccccc1)NC(=O)[C@H](CO)NC(=O)[C@H](CO)NC(=O)[C@H](CO)NC(=O)[C@H](CO)NC(=O)[C@H](CCCNC(=N)N)NC(=O)[C@H](Cc1c[nH]cn1)NC(=O)[C@H](CC(C)C)NC(=O)[C@H](Cc1ccccc1)NC(=O)[C@H](CCC(=O)O)NC(=O)[C@H](C)NC(=O)[C@H](CC(C)C)NC(=O)[C@H](CCCNC(=N)N)NC(=O)[C@@H]1CCCN1C(=O)[C@@H](NC(=O)[C@H](C)NC(=O)[C@@H]1CSSC[C@H](NC(=O)[C@H](CCCNC(=N)N)NC(=O)CC[C@H](NC(=O)CCCCCCCCCCCCCCCCCCC(=O)O)C(=O)O)C(=O)N[C@@H](CC(N)=O)C(=O)N[C@@H]([C@@H](C)O)C(=O)N[C@@H](C)C(=O)N[C@@H]([C@@H](C)O)C(=O)N1)[C@@H](C)O [Compound 142, [19CD]-isoGlu-RC()NTATC()ATPRLAEFLHRSSSSF-Gly(Me)-A-Ile(Me)-LSSTEVGSETP-NH2] ({C20 diacid-γGlu}-RCNTATCATPRLAEFLHRSSSSF[Sar]A[NMeI]LSSTEVGSETP-NH2; disulfide 2-7) | 140 pM | 290 pM |  |  |  |  |  |  |  | 
CC[C@H](C)[C@@H](C(=O)N[C@@H](CC(C)C)C(=O)N[C@@H](CO)C(=O)N[C@@H](CO)C(=O)N[C@H](C(=O)N[C@@H](CC(N)=O)C(=O)N[C@H](C(=O)NCC(=O)N[C@@H](CO)C(=O)N[C@@H](CC(N)=O)C(=O)N[C@H](C(=O)N1CCC[C@H]1C(N)=O)[C@@H](C)O)C(C)C)[C@@H](C)O)N(C)C(=O)[C@H](C)NC(=O)CN(C)C(=O)[C@H](Cc1ccccc1)NC(=O)[C@H](CC(N)=O)NC(=O)[C@H](CC(N)=O)NC(=O)[C@H](CO)NC(=O)[C@H](CO)NC(=O)[C@H](CCCNC(=N)N)NC(=O)[C@H](Cc1c[nH]cn1)NC(=O)[C@H](CC(C)C)NC(=O)[C@H](Cc1ccccc1)NC(=O)[C@H](CCC(=O)O)NC(=O)[C@H](C)NC(=O)[C@H](CC(C)C)NC(=O)[C@H](CCCNC(=N)N)NC(=O)[C@H](CCC(N)=O)NC(=O)[C@@H](NC(=O)[C@H](C)NC(=O)[C@@H]1CSSC[C@H](NC(=O)[C@H](CCCNC(=N)N)NC(=O)[C@H](CCCNC(=N)N)NC(=O)CC[C@H](NC(=O)CCCCCCCCCCCCCCCCCCC(=O)O)C(=O)O)C(=O)N[C@@H](CC(N)=O)C(=O)N[C@@H]([C@@H](C)O)C(=O)N[C@@H](C)C(=O)N[C@@H]([C@@H](C)O)C(=O)N1)[C@@H](C)O [Compound 83, [19CD]-isoGlu-RRC()NTATC()ATQRLAEFLHRSSNNF-Gly(Me)-A-Ile(Me)-LSSTNVGSNTP-NH2] ({C20 diacid-γGlu}-RRCNTATCATQRLAEFLHRSSNNF[Sar]A[NMeI]LSSTNVGSNTP-NH2; disulfide 3-8) |  |  | 95 pM | SS (SS indicates solubility ≥ 1mg/ml) | SS (SS indicates solubility ≥ 1mg/ml) | SS (SS indicates solubility ≥ 1mg/ml) | SS (SS indicates solubility ≥ 1mg/ml) | SS (SS indicates solubility ≥ 1mg/ml) | SS (SS indicates solubility ≥ 1mg/ml) | SS (SS indicates solubility ≥ 1mg/ml)
